In patent US20260317313A1, “DNA Polymerase Theta Inhibitors Containing Non-Saturated 5-Membered Heterocyclic Rings and Use Thereof” (Thomas Jefferson University, priority 2022, published 2026):

biological target: T1, recombinant human Polq polymerase domain (residues 1792-2590) (Homo sapiens, UniProt O75417); experiment: Cy5 fluorescence assay of Polq polymerase enzymatic activity; type: biochemical; settings: 5 nM Polq polymerase domain, 60 nM primer-template, 50 uM dNTPs, 37° C., 18 min, 2.5% DMSO, triplicate
T1 sequence (O75417 1792-2590): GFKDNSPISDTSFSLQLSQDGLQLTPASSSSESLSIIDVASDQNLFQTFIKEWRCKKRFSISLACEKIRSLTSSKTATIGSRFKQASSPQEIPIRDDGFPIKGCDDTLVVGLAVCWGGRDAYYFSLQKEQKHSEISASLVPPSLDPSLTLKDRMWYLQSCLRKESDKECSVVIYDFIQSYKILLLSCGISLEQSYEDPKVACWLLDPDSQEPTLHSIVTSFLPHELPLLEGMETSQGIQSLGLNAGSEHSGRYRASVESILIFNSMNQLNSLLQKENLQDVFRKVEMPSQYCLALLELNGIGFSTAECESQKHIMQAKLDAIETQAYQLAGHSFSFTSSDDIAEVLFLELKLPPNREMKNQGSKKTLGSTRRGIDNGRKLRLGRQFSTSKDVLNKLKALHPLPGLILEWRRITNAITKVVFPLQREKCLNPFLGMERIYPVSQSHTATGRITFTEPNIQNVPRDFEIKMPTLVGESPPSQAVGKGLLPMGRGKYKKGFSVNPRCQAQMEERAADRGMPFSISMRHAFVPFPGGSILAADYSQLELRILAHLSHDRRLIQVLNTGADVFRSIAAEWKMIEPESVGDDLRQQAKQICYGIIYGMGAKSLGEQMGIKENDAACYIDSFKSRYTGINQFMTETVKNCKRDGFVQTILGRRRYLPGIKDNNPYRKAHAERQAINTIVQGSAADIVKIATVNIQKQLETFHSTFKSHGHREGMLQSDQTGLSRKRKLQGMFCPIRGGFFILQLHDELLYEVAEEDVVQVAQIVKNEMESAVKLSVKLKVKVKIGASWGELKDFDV
Procedure: The following Cy5 fluorescence assay was used to measure the ability of compounds to inhibit Polq polymerase domain in vitro. The fluorescent based assay was performed as follows: 60 nM of the pre-annealed primer-template containing a 5′ Cy5 fluorophore conjugated template strand (SEQ ID NO 6: 5′-/5Cy5/ […] GGACAG-3′), a downstream complementary oligo conjugated with a 3′ Blackhole quencher (SEQ ID NO 7: 5′-CTAAGCTCACAGTG/3IAbRQSp/-3′) and a primer strand (SEQ ID NO 8: 5′-CTGTCCTGCATGATG-3′) was mixed with 50 uM 2′-deoxyribonucleoside triphosphates (dNTPs), 0.1 mg/mL Bovine serum albumin (BSA), 0.01% NP-40, 10% glycerol, 1 mM dithiothreitol (DTT), 10 mM MgCl2, 25 mM TrisHCl pH 7.8 in the presence of 2.5% DMSO with or without various concentrations (7-point dilution series) of Polq small molecule inhibitors represented by Formula I at 37° C. in a volume of 40 μL.

SMILES	IC50
CN(C(=O)Oc1c(-c2cn(CCO)nn2)cc(C(F)(F)F)cc1C(F)(F)F)c1ccc(F)cc1 [Example 1]	4.8 nM

same assay, conditions: 5 nM Polq polymerase domain, 60 nM primer-template, 50 uM dNTPs, 37° C., 18 min, 2.5% DMSO, triplicate; read-out: Polq IC50

SMILES	IC50
[2H]C([2H])([2H])N(C(=O)Cc1c(-c2cnn(C(=O)OC(C)(C)C)c2)cc(C(F)(F)F)cc1C(F)(F)F)c1ccc(F)cc1 [Example 22, Tert-butyl 4-(2-{[(4-fluorophenyl)(methyl-d3)carbamoyl]methyl}-3,5-bis(trifluoromethyl)phenyl)-1H-pyrazole-1-carboxylate]	24.5 nM
[2H]C([2H])([2H])N(C(=O)Cc1c(-c2cn[nH]c2)cc(C(F)(F)F)cc1C(F)(F)F)c1ccc(F)cc1 [Example 23, N-(4-fluorophenyl)-N-(methyl-d3)-2-[2-(1H-pyrazol-4-yl)-4,6-bis(trifluoromethyl)phenyl]acetamide]	46.8 nM
N#CCN(C(=O)Oc1c(-n2cc[nH]c2=O)cc(C(F)(F)F)cc1C(F)(F)F)c1ccc(F)cc1 [Example 20, 2-(2-oxo-2,3-dihydro-1H-imidazol-1-yl)-4,6-bis(trifluoromethyl)phenyl N-(cyanomethyl)-N-(4-fluorophenyl)carbamate]	439 nM
CN(C(=O)Oc1c(-c2cn(C3CC(O)C3)nn2)cc(C(F)(F)F)cc1C(F)(F)F)c1ccc(F)cc1 (stereo not shown) [Example 17, 2-[1-(3-hydroxycyclobutyl)-1H-1,2,3-triazol-4-yl]-4,6-bis(trifluoromethyl)phenyl N-(4-fluorophenyl)-N-methylcarbamate]	1.5 nM

same assay, conditions: Polq IC50, 5 nM Polq polymerase domain, 60 nM primer-template, 50 uM dNTPs, 37° C., 18 min, 2.5% DMSO, triplicate

SMILES	IC50
Cc1ncsc1-c1ccc(CNC(=O)[C@@H]2C[C@@H](O)CN2C(=O)[C@@H](NC(=O)CCOCCOCCn2cc(-c3cc(C(F)(F)F)cc(C(F)(F)F)c3OC(=O)N(C)c3ccc(F)cc3)nn2)C(C)(C)C)cc1 [Example 37, 2-(1-(2-(2-(3-(((S)-1-((2S,4R)-4-hydroxy-2-((4-(4-methylthiazol-5-yl)benzyl)carbamoyl)pyrrolidin-1-yl)-3,3-dimethyl-1-oxobutan-2-yl)amino)-3-oxopropoxy)ethoxy)ethyl)-1H-1,2,3-triazol-4-yl)-4,6-bis(trifluoromethyl)phenyl (4-fluorophenyl)(methyl)carbamate]	4.6 nM
CN(C(=O)Oc1c(-c2cn(CCOCC(=O)Nc3cccc4c3C(=O)N(C3CCC(=O)NC3=O)C4=O)nn2)cc(C(F)(F)F)cc1C(F)(F)F)c1ccc(F)cc1 (stereo not shown) [Example 5, 2-(1-(2-(2-((2-(2,6-dioxopiperidin-3-yl)-1,3-dioxoisoindolin-4-yl)amino)-2-oxoethoxy)ethyl)-1H-1,2,3-triazol-4-yl)-4,6-bis(trifluoromethyl)phenyl (4-fluorophenyl) (methyl)carbamate]	4.6 nM
[2H]C([2H])([2H])N(C(=O)Oc1c(-c2cnn(CC(O)CN(C)C)c2)cc(C(F)(F)F)cc1C(F)(F)F)c1ccc(F)cc1 (stereo not shown) [Example 25, 2-{1-[3-(dimethylamino)-2-hydroxypropyl]-1H-pyrazol-4-yl}-4,6-bis(trifluoromethyl)phenyl N-(4-fluorophenyl)-N-(methyl-d3)carbamate]	24 nM
[2H]C([2H])([2H])N(C(=O)Oc1c(-c2cn(C3C[C@@H](O)[C@@H](O)C3)nn2)cc(C(F)(F)F)cc1C(F)(F)F)c1ccc(F)cc1 (mixture of isomers) [Example 13, 2-{1-[(3R,4S)-3,4-dihydroxycyclopentyl]-1H-1,2,3-triazol-4-yl}-4,6-bis(trifluoromethyl)phenyl N-(4-fluorophenyl)-(methyl-d3)carbamate (Racemate)]	4.6 nM
[2H]C([2H])([2H])N(C(=O)Oc1c(-n2cc[nH]c2=O)cc(C(F)(F)F)cc1C(F)(F)F)c1ccc(F)cc1 [Example 10, 2-(2-oxo-2,3-dihydro-1H-imidazol-1-yl)-4,6-bis(trifluoromethyl)phenyl 4-fluorophenyl(methyl-d3)carbamate]	2.9 nM
CN(C(=O)Oc1c(-c2cn(C3CC(O)C3)nn2)cc(C(F)(F)F)cc1C(F)(F)F)c1ccc(F)cc1 (stereo not shown) [Example 11, 2-[1-(3-hydroxycyclobutyl)-1H-1,2,3-triazol-4-yl]-4,6-bis(trifluoromethyl)phenyl N-(4-fluorophenyl)-N-methylcarbamate]	2 nM
CN(C(=O)Oc1c(-c2cn(CCOCCOCCC(=O)O)nn2)cc(C(F)(F)F)cc1C(F)(F)F)c1ccc(F)cc1 [Example 36, 3-(2-(2-(4-(2-(((4-fluorophenyl)(methyl)carbamoyl)oxy)-3,5-bis(trifluoromethyl)phenyl)-1H-1,2,3-triazol-1-yl)ethoxy)ethoxy)propanoic Acid]	3 nM
[2H]C([2H])([2H])N(C(=O)Oc1c(-n2cc[nH]c2=O)cc(C(F)(F)F)cc1C(F)(F)F)c1ccc(F)c(Cl)c1F [Example 9, 2-(2-oxo-2,3-dihydro-1H-imidazol-1-yl)-4,6-bis(trifluoromethyl)phenyl 3-chloro-2,4-difluorophenyl(methyl-d3)carbamate]	2.4 nM
CN(C(=O)Oc1c(-c2cn(CCOCCOCCOCCOCC(=O)Nc3cccc4c3C(=O)N(C3CCC(=O)NC3=O)C4=O)nn2)cc(C(F)(F)F)cc1C(F)(F)F)c1ccc(F)cc1 (stereo not shown) [Example 8, 2-(1-(14-((2-(2,6-dioxopiperidin-3-yl)-1,3-dioxoisoindolin-4-yl)amino)-14-oxo-3,6,9,12-tetraoxatetradecyl)-1H-1,2,3-triazol-4-yl)-4,6-bis(trifluoromethyl)phenyl (4-fluorophenyl) (methyl)carbamate]	4.2 nM
CN(C(=O)Oc1c(-c2cn(CCCCC(=O)Nc3cccc4c3C(=O)N(C3CCC(=O)NC3=O)C4=O)nn2)cc(C(F)(F)F)cc1C(F)(F)F)c1ccc(F)cc1 (stereo not shown) [Example 3, 2-(1-(5-((2-(2,6-dioxopiperidin-3-yl)-1,3-dioxoisoindolin-4-yl)amino)-5-oxopentyl)-1H-1,2,3-triazol-4-yl)-4,6-bis(trifluoromethyl)phenyl (4-fluorophenyl) (methyl)carbamate]	3.3 nM
[2H]C([2H])([2H])N(C(=O)Oc1c(-c2cn(CC(O)CN(C)C)nn2)cc(C(F)(F)F)cc1C(F)(F)F)c1ccc(F)cc1 (stereo not shown) [Example 30, 2-{1-[3-(dimethylamino)-2-hydroxypropyl]-1H-1,2,3-triazol-4-yl}-4,6-bis(trifluoromethyl)phenyl N-(4-fluorophenyl)-N-(methyl-d3)carbamate]	1.6 nM
CN(C(=O)Oc1c(-n2cc[nH]c2=O)cc(C(F)(F)F)cc1C(F)(F)F)c1ccc(F)cc1 [Example 2, 2-(2-oxo-2,3-dihydro-1H-imidazol-1-yl)-4,6-bis(trifluoromethyl)phenyl N-(4-fluorophenyl)-N-methylcarbamate]	4 nM
[2H]C([2H])([2H])N(C(=O)Oc1c(-c2cn(CC(O)CNC)nn2)cc(C(F)(F)F)cc1C(F)(F)F)c1ccc(F)cc1 (stereo not shown) [Example 29, 2-{1-[2-hydroxy-3-(methylamino)propyl]-1H-1,2,3-triazol-4-yl}-4,6-bis(trifluoromethyl)phenyl N-(4-fluorophenyl)-N-(methyl-d3)carbamate]	3.4 nM
[2H]C([2H])([2H])N(C(=O)Oc1c(-c2cn(CC3(O)CNC3)nn2)cc(C(F)(F)F)cc1C(F)(F)F)c1ccc(F)c(Cl)c1F [Example 16, 2-{1-[(3-hydroxyazetidin-3-yl)methyl]-1H-1,2,3-triazol-4-yl}-4,6-bis(trifluoromethyl)phenyl N-(3-chloro-2,4-difluorophenyl)-N-(methyl-d3)carbamate]	1.5 nM
